Data published in patent US11053608B2, “Combinatorial derivatives of RNA oligonucleotides” (priority 2017, dated 2021).

How the values were obtained:
skin wounds = assay: Wound healing activity; type: in vivo, male Vistar white rats
Description: The study of the wound healing properties of the compositions was carried out on male Vistar white rats. In 38 animals that were anesthetized with diethyl ether for 2-4 min., A 2 by 2 cm skin area was cut out on the dorsal side of the body, behind the right shoulder blade. The skin was taken with tweezers, it was pulled back, the skin fragment was cut 2 cm in size, wound depth 2 mm, the average area of the wound was 4±1.0 cm^2.
The resulting wounds of a polygonal shape were intensively bleeding. Then the wounds of animals first and second groups (10 in each), D1 and D2 compositions were applied.
The wounds of rats of the 3rd group were treated with Dexpanthenol (DP), the 4th group of 8 animals was the control group, the wounds of these animals were not treated. The compositions in contact with blood formed a gel form, it was covering entire surface of the wound and capture a small fragment of surrounding skin around the wound.
The glue BF-6 was applied on top of the gel, dried and the animals were released into cells.
The planimetric studies of the wounds were carried out from 1st day of experiment on the 3rd, 6th, 9th, 11th, and 13th days, which made it possible to judge the features of reparative processes.
The measurement of the area of the wounds was carried out as follows: on the celluloid film which was covering the wound entirely, contours were applied, after which the area of the wound surface was determined using graph paper.

[1] = Toxic dose LD50 and lethal dose LD100; type: in vivo
Description: The compositions (MATR and Taxotere) were administered intraperitoneally three times with an interval of two hours in 0.5 ml. For MATR injection aqueous solution was used. The total doses of the compositions were 34.0, 68.0, 84.0, 102.0 and 136 mg/kg. The number of dead animals in each group was confirmed every 24-48 hours. The calculation of the toxic dose, LD50, was carried out according to the protocol. The lethal dose, […], was determined experimentally.

HeLa-2 tumor cells = assay: Minimum active dose and cytopathic effect in HeLa-2 cell culture; type: cell-based; settings: minimum amount causing degeneration of 90-95% of the cells; medium 199; monitored 5 days
Description: Determination of the anticancer activity of MATR in the cell culture was performed in a HeLa-2 cell culture. The different amount of MATR from 2 to 12 μg/ml of medium was added to medium 199. (see table 1). For the control a culture was without MATR. Cell cultures were monitored for 5 days with daily viewing. The minimum active dose (MAD) of MATR was considered to be its minimum amount, which caused degeneration of 90-95% of the cells (Table 2)

Schwez leukemia = assay: Antitumor activity on Shvets leukemia; type: in vivo, Outbred white rats; settings: injected dose 9.1*3 = 27.3 mg/kg intraperitoneal

**Q.** For `CC(C)(CO)[C@@H](O)C(=O)NCCCO` [DP, Dexpanthenol], which “Wound Area (S) during the observation” value (skin wounds; 1-3 days) is on record?
**A.** 4.1 ± 1.0 cm2

**Q.** What about the “Wound Area (S) during the observation” value (skin wounds; 3-6 days) of the same compound?
**A.** 3.2 ± 0.3 cm2

**Q.** And the “Wound Area (S) during the observation” value (skin wounds; 6-9 days)?
**A.** 2.4 ± 0.3 cm2

**Q.** What about the “Wound Area (S) during the observation” value (skin wounds; 9-11 days) of the same compound?
**A.** 1.0 ± 0.3 cm2

**Q.** What about the “Wound Area (S) during the observation” value (skin wounds; 11-13 days) of the same compound?
**A.** 0.3 ± 0.1 cm2

**Q.** Which LD50 ([1]; in vivo, intraperitoneal) does the source give for `CC(=O)O[C@@]12CO[C@@H]1C[C@H](O)[C@@]1(C)C(=O)[C@H](O)C3=C(C)[C@@H](OC(=O)[C@H](O)[C@@H](NC(=O)OC(C)(C)C)c4ccccc4)C[C@@](O)([C@@H](OC(=O)c4ccccc4)[C@H]21)C3(C)C` [Taxotere] here?
**A.** 120 mg/kg

**Q.** And the “toxicity of the control compound (dose in brackets)” value ([1]; intraperitoneally three times with an interval of two hours)?
**A.** 120 mg/kg

**Q.** And the “MAD (minimum active dose)” value (HeLa-2 tumor cells)?
**A.** 10 µg/mL

**Q.** What about the Tumor volume (Schwez leukemia) of the same compound?
**A.** 0.73 cm3
